PubChem BioAssay AID2384 (Southern Research Specialized Biocontainment Screening …, 2010)
Values joined by “and” are separate entries in the source; they are usually repeats but may differ in a detail not shown here. Identical values can stand only once.

test system: S. typhi GFP reporter counter-screen, fluorescence, 4 h; assay: inhibitors in S. typhi counter-screen strain, dose response, counter-screen for PhoP regulon inhibitor project, fluorescence, 4 h (AID 2384)

| SMILES | IC50 |
| --- | --- |
| NC(=O)c1ccc(N=C2C(=O)Nc3ccc([N+](=O)[O-])cc32)cc1 | 72.8 µM |
| O=C(CSc1nc2ccccc2s1)N/N=C/c1cc([N+](=O)[O-])ccc1O | 60.8 µM |
| O=C(C[n+]1cccc(CNC(=O)c2ccc(OC(F)F)cc2)c1)Nc1ccc(SC(F)F)cc1 | 78.6 µM |
| Cc1ccc(C(c2cc(Cl)c3cccnc3c2O)N2CCN(C)CC2)cc1 (stereo not drawn) | 30.4 µM |
| Cc1ccc(C(=O)NCCN2C3=NC[C@@H](Cc4ccccc4)N3C[C@H]2Cc2ccc(O)cc2)cc1Br | 35.8 µM |
| OC(CNCCc1ccc(C(F)(F)F)cc1)COC(c1ccccc1)c1ccccc1 (stereo not drawn) | 29.6 µM |
| C/C(=N\Nc1ccc2nncn2n1)c1ccccn1 | 37.2 µM |
| O=C(Cc1cccs1)N/N=C\c1ccc([N+](=O)[O-])s1 | 50.9 µM |
| CN(C)c1ccc(O)c2c1CC1CC3C(N(C)C)C(=O)C(C(N)=O)=C(O)[C@@]3(O)C(=O)C1=C2O (stereo partly drawn) | 1.69 µM |
| CCCCOCCCNc1ncnc2c1[nH]c1ccccc12 | 77.4 µM |
| CC12CN3CC(C)(CN(C1)C3c1ccc(Br)cc1O)C2 (stereo not drawn) | 143 µM |
| COc1cccc(Nc2nc(NCC3CCCO3)c3ccccc3n2)c1 (stereo not drawn) | 31.1 µM |
| O=C(/C=C/c1ccccc1Cl)Nc1cccc(O)c1 | 49.8 µM |
| OC(CN1CCCCC1)Cn1c2ccccc2c2cc(Br)ccc21 (stereo not drawn) | 37.8 µM |
| CC(C)[C@@H]1CC[C@@H](C)C[C@H]1OC(=O)C[n+]1cc(-c2ccc(Cl)cc2)n2c1CCCCC2 | 74.9 µM |
| CN1CCN(c2ccc(NC(=O)CSc3ccccc3)cc2F)CC1 | 104 µM |
| Cc1ccc2nc(/C(C#N)=C\c3ccc([N+](=O)[O-])o3)[nH]c2c1 | 95.9 µM |
| CCOC(=O)N1CCN(C(=O)c2cn(CC)c3cc(N4CCN(C)CC4)c(F)cc3c2=O)CC1 | 20.3 µM |
| N#C/C(=C\c1ccc(O)c(O)c1)C(=O)NCc1ccccc1 | 132 µM |
| CCCCc1ccc(NC2=NCCCS2)cc1 | 80.5 µM |
| O=C(Nc1nnc(-c2ccccn2)o1)c1cccc(Cl)c1 | 91.9 µM |
| N=C(N)c1ccc(/C=C/c2ccc(C(=N)N)cc2O)cc1 | 10.5 µM |

| SMILES | IC50 |
| --- | --- |
| O=S(=O)(Nc1c(S(=O)(=O)c2ccccc2)c2nc3ccccc3nc2n1C1CCCCC1)c1ccccc1 | 5.67 µM |
| Nc1nnnn1/N=C/c1cc([N+](=O)[O-])ccc1O | 52.1 µM |
| C#CCOCCOCCOCCNc1nc(N2CCN(C(=O)CCCCCCCCCCNC(=O)[C@H](CCCCN)n3cc(CCO)nn3)CC2)nc(N2CCN(C(=O)CCCCCCCCCCNC(=O)[C@H](CCCN=C(N)N)n3cc(C[C@@H](C)CC)nn3)CC2)n1 | 18.1 µM |
| Clc1ccc(CN2C3=NCCN3c3ccccc32)cc1 | 42.8 µM |
| Fc1ccc(NC(=S)Nc2cc(-c3ccccc3)[nH]n2)cc1Cl | 71.7 µM |
| CCCCCCCCCCOC(=O)Cn1c(COc2ccc(C)cc2)[n+](C)c2ccccc21 | 18.3 µM |
| COc1c2ccccc2nc2ccccc12 | 40.4 µM |
| O=C(N/N=C/c1cc(Cl)cc(Cl)c1O)c1ccncc1 | 33.7 µM |
| O=C(C[n+]1cc(-c2ccccc2)n2c1CCC2)Nc1nc(-c2ccc(F)cc2)cs1 | 37 µM |
| Cc1ccc(Nc2c3c(nc4ccccc24)CCC3)cc1 | 25.8 µM |
| Oc1c(Br)cc(Br)cc1C=Nc1ccc2[nH]ncc2c1 | 21.8 µM |
| O=C(NC1CCCC1)c1ccc(Br)s1 | 49.5 µM |
| CCCCNC1=CC(=O)C(=O)c2ccccc21 | 72.8 µM |
| Cc1cc2nc(C3CCN(CC4COc5ccccc5O4)CC3)[nH]c2cc1C (stereo not drawn) | 19.5 µM |
| OC(c1cc(C(F)(F)F)nc2c(C(F)(F)F)cccc12)C1CCCCN1 (stereo not drawn) | 19.1 µM |
| CN1CCN(c2c(F)cc3c(=O)c(C(=O)O)cn4c3c2SCC4)CC1 | 6.28 µM and 8.88 µM |
| COc1ccccc1N1CCN(Cc2ccc(O)c3ncccc23)CC1 | 32.5 µM |
| N=c1n(CCN2CCCCC2)c2ccccc2n1CC(O)COc1ccccc1 (stereo not drawn) | 29.7 µM |
| Fc1ccc(CCNCc2ccc(Cl)c(Cl)c2)cc1 | 36.6 µM |
| CCCCCCOC(=O)C[N+](C)(C)CCOC1CC2CCC1(C)C2(C)C (stereo not drawn) | 27 µM |
| CC(=O)NC(c1ccc(Cl)cc1Cl)c1ccc2cccnc2c1O (stereo not drawn) | 39.6 µM |
